Test results from ChEMBL document CHEMBL2074525, “Screening of multidrug-resistance sensitive drugs by in situ brain perfusion in P-glycoprotein-deficient mice” (Pharm Res, 2001).

Molecular target: ATP-dependent translocase ABCB1 (Mus musculus, UniProt P21447)
Test: TP_TRANSPORTER: increase in blood-brain coefficient in mdr1a(-/-) mouse
Type: functional, organism-based
Details: in vivo

ATP-dependent translocase ABCB1, sequence (P21447 whole entry): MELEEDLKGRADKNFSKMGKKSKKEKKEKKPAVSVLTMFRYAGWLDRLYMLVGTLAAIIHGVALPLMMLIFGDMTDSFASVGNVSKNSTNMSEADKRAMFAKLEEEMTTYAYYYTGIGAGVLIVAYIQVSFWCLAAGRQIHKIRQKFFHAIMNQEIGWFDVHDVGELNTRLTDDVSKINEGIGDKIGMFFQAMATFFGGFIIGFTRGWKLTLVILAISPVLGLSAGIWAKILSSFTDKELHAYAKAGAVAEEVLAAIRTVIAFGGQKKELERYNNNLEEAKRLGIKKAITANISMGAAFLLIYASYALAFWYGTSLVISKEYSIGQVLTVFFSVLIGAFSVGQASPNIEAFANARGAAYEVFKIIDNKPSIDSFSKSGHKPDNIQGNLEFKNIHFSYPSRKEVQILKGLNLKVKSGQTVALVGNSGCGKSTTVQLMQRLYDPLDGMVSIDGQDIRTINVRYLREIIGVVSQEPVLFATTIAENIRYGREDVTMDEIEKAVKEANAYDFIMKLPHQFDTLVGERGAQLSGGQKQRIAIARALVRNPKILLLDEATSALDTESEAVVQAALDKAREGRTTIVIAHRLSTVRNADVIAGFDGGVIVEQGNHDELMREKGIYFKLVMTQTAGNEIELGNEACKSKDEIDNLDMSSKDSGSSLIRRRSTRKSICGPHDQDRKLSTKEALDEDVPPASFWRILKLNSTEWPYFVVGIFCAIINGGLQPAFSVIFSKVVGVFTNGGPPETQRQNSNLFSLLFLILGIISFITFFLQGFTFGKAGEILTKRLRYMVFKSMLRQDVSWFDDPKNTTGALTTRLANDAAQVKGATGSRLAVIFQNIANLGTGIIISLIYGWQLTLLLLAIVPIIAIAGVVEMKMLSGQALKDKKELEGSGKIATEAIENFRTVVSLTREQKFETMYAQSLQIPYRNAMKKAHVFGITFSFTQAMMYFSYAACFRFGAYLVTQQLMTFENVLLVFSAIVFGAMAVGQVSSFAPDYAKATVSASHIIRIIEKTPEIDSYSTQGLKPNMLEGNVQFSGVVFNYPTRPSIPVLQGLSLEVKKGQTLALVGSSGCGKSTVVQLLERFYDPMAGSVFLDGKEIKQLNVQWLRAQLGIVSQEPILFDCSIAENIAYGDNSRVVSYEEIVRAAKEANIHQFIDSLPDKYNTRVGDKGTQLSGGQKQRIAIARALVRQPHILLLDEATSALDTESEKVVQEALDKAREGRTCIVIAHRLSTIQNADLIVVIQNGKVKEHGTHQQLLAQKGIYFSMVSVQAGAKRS

Activity: substrate [+]
SMILES: COc1cccc2c1C(=O)c1c(O)c3c(c(O)c1C2=O)C[C@@](O)(C(=O)CO)C[C@@H]3O[C@H]1C[C@H](N)[C@H](O)[C@H](C)O1 [DOXORUBICIN]
